This is an account of results in patent publication US12496304B2, “Selective glucocorticoid receptor modifiers for treating impaired skin wound healing” (AKRIBES BIOMEDICAL GMBH, priority 2019, dated 2025).

In experiment [1] the test system is Collagen 3a. As to the kind of experiment: mRNA expression in fibroblast cultures (qRT-PCR): collagen 3. Type of experiment: cell-based, human. The note with it: WE-1, graded concentrations, 72-hour incubation (FIG. 7A). How it is done:
Cells were seeded into 24-well plates and incubated with compounds in the presence or absence of wound exudates for 72 hours. Total RNA was isolated using the RNeasy Mini Kit (QIAGEN #74106) according to the manufacturer's protocol. RNA integrity and concentration for each sample was confirmed and measured with the Qubit fluorometer. Each RNA sample was then diluted to 2 ng/μl in nuclease-free doubly distilled water.
20 ng of total RNA were reverse-transcribed into cDNA and immediately subjected to PCR amplification using the SuperScript Ill Platinum One-Step Quantitative RT-PCR System with ROX (Invitrogen #11745). qRT-PCR amplifications were performed in 20 μl reactions containing 9 μl 2× Reaction Mix with ROX, 0.4 μl SuperScript III RT/Platinum Taq Mix and 1 μl primer (final: 900 nM, Taqman Gene Expression Assay, Applied Biosystems)
The program included 30 minutes of reverse transcription at 48° C., an initial denaturation for 5 minutes at 95° C. followed by 40 cycles of denaturation at 95° C. for 15 seconds and annealing at 60° C. for 60 seconds. Reactions were set up in 96-well format PCR plates (Peqlab #732-2879) and carried out in a Mx3005P Real-Time PCR Detection System (Stratagene).
TaqMan Gene Expression Assays (Applied Biosystems) were used, which include preoptimized probe and primer sets specific for the genes being validated. The sequences and ID numbers are listed below:
The house keeping gene elongation factor 1a (EF1a) was used as a reference gene. Normalized expression was calculated using the comparative Ct (or ΔCt) method, and fold changes were derived from the 2-ΔΔCt values for each gene. Graphs were prepared using relative Ct values that were calculated by subtracting the EF1a Ct values from the corresponding Ct values for the gene being measured.
In general terms: In qPCR the cycle at which signal appears reflects the starting amount.

For experiment [2], the target named is T1, glucocorticoid receptor (Homo sapiens, UniProt P04150).
T1 sequence (P04150 1-777): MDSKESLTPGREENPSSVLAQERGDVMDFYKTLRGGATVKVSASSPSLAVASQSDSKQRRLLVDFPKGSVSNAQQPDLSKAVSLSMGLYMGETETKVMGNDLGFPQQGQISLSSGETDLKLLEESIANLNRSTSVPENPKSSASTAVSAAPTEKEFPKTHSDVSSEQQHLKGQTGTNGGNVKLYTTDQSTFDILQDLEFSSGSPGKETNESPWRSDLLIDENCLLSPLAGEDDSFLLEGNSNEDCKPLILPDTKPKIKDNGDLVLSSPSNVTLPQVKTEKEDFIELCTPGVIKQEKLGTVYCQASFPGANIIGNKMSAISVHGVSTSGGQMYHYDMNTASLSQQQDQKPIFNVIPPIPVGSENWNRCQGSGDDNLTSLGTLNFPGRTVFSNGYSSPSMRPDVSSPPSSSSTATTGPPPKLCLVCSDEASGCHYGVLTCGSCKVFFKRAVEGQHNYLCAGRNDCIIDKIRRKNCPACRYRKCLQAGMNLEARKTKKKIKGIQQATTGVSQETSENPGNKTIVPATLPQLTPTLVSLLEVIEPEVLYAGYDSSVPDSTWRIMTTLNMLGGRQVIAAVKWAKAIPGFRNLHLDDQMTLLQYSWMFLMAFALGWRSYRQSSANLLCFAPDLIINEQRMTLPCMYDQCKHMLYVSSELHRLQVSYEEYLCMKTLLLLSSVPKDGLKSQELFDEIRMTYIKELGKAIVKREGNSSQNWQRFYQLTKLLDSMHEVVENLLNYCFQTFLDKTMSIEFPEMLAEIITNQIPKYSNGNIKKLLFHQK
The note with it: 45 minutes at 37° C.

In experiment [3] the test system is IL-8. As to the kind of experiment: U937 cell stimulation assay (LPS-induced IL-8). Type of experiment: cell-based, human. The note with it: LPS 100 ng/ml, 16 hours (FIG. 16A). As for the experimental part:
The human monocytic cell line U937 (ATCC CRL 1593) was routinely grown in RPMI_1640 supplemented by 10% FCS and 2 mM glutamine, and 100 U/ml penicillin/100 μg/ml streptomycin. Cells were seeded at 4×10^5/ml in 50 μl/well of a 384-well plate and combined cells with graded concentrations of test compounds and LPS at 100 ng/ml. After 16 hours, the supernatants were transferred to fresh plates and frozen at −20° C. for IL-8 analysis, using a commercial ELISA kit.

The subject of experiment [4] is IL-8. Put plainly: Primary human monocyte cytokine secretion assay (spontaneous IL-8). The note with it: 16 hours (FIG. 16B). Type of experiment: cell-based. As for the experimental part: Primary human monocytes were prepared from peripheral blood mononuclear cells (PBMC). PBMC were isolated from buffy coats obtained from the Red Cross, Vienna, using LymphoPrep (Technoclone). 30 ml of buffy concentrate was diluted 1:2 with PBS, gently underlayered with 15 ml Lymphoprep in a 50 ml Falcon tube and centrifuged for 25 minutes at 1800 rpm at 21° C. The interphase was carefully transferred to a new Falcon tube and filled up to 50 ml with ice cold PBS. After another centrifugation step (10 minutes, 1200 rpm, 4° C.), the cell pellet was washed 3 times with PBS, resuspended in RPMI medium containing 20% FCS and 10% DMSO and frozen in liquid nitrogen. Monocytes were generated from frozen aliquots using positive selection with the CD14 Beads-Kit (Miltenyi) on an autoMACS-Sorter (Miltenyi) according to the manufacturer's instructions.
Cells were seeded at 8×10^5/ml in 50 μl/well of a 384-well plate and combined cells with graded concentrations of test compounds. After 16 hours, the supernatants were transferred to fresh plates and frozen at −20° C. for IL-8 analysis, using a commercial ELISA kit.

Like-named read-outs stand apart in the source and are kept apart here.

For `Cc1ccc2c(NC[C@](O)(CC(C)(C)c3cc(F)cc4c3OCC4)C(F)(F)F)cccc2n1` [Mapracorat], in experiment [1], the “collagen 3 mRNA expression” value is “at all three concentrations enhanced collagen 3 mRNA expression in the presence of WE”. Besides, the “localization of the glucocorticoid receptor” value was “N/C” in experiment [2] (0.1 nM), “N” in experiment [2] (1 nM), “N” in experiment [2] (100 nM) and “N” in experiment [2] (10 nm). Also, the “LPS-induced IL-8 secretion in U937 cells” value in experiment [3] was “inhibited both LPS-induced and spontaneous IL-8 secretion”. The “spontaneous IL-8 secretion in human monocytes” value in experiment [4] is “inhibited both LPS-induced and spontaneous IL-8 secretion”.
